Experimental data reported in patent publication EP0240630A2, “Treatment of skin of over androgenicity using compositions containing pregnenolone” (priority 1986, dated 1987).

Experiments:
[1] = system: flank organs; test: Stimulation of female hamster flank organ growth by topical DHA; assay type: in vivo, female hamsters; details: 12 µg, 60 µg, 120 µg applied to the right side, 7 days/week for 6 weeks
Experimental: Before testing the anti-androgenic properties of pregnenolone on hamster flank organs and relying on the results, a centrally important question therefore needed to be answered -- Could DHA be shown to stimulate growth in the flank organs? This question was answered by applying graded doses of DHA, 12 µg, 60 µg, 120 µg to the right side of female hamsters (5 hamsters/group), for 7 days/week for 6 weeks.

[2] = system: flank organ; details: topical application, graded doses, 5 days/week for 2 weeks; cited from earlier work
[3] = Solubility in formulation vehicles; assay type: physicochemical
Source text: With regard to formulation for use with humans, because pregnenolone is insoluble in water, most aqueous base vehicles or carriers are not useful in the invention. Vehicles with a high content of alcohols, such as isopropanol or mixtures of alcohols with longer (C₄-C₁₀) alkane or alkene chains, in which pregnenolone is soluble, would afford a suitable base for the formulation as liquid, gel or cream. Glycerol may be added in the preparation as an emollient. Glycerol is hygroscopic; it keeps the skin surface from drying. Other additions of moisturizers or perfumes as known in the art are compatible with pregnenolone.

[4] = system: 3βHSD; test: In vivo metabolism of injected 1,2-3H-DHA in DHA-stimulated hamster flank organs after topical inhibitor; set-up: species or system Syrian Golden Hamsters; details: female hamsters, pregnenolone topical for 3 days; 1 hour after intracardial ³H-DHA
Source text: The effects of hormones and hormonally active substances on sebaceous glands can also be evaluated using the Syrian hamster flank organs as an animal model. The results of experiments using hamsters are valuable inasmuch as they can provide in vivo confirmation of the in vitro experiments like those described above using rat preputial gland. The flank organs, also called the costovertebral spot or the costovertebral organ, are sebaceous structures located on each flank of the animal. Like the sebaceous glands of the human and the preputial gland of the rate they are androgen dependent (Voigt and Hsia, 1973; Gomez and Frost, 1969; Frost and Gomez, 1973).
Hamster flank organs were accordingly used to test in vivo the androgenic inhibitory properties of pregnenolone.
Female Syrian Golden Hamsters were used in this experiment. […]
On the afternoon of day 3, an intracardial injection of 1,2-³H-DHA (5µCi/0.1 ml saline buffer solution) was given to both experimental groups anesthetized with ether. […] Each organ was then placed in a 16 mm x 150 mm test tube containing methanol and was homogenized, extracted and analyzed for steroid metabolites by separating the metabolites using thin layer chromatography as described above, scraping the thus separated metabolites from the thin layer plates, and quantitating using a scintillation counter. […]
Results are shown in Figure 2 expressed as DPM/mg tissue.

[5] = system: acne vulgaris; assay type: in vivo, human
Experimental: The following experiment was conducted and is a typical trial. In a double-blind clinical trial 23 patients with acne vulgaris volunteered to participate. Fifteen patients (11 females and 4 males) were given a 1% solution of pregnenolone dissolved in isopropanol containing 1% glycerol, and 8 patients (5 females and 3 males) were given a 1% solution of glycerol in isopropanol. Neither the patients nor the attending dermatologist knew whether or not the dispensed solution contained pregnenolone. The patients were instructed to stop using their previous medications for two weeks and then to apply the given solution to their faces twice daily. They were reexamined biweekly.

[6] = system: 3β-hydroxysteroid dehydrogenase Δ^4-5-isomerase (3βHSD); test: Inhibition of 3βHSD conversion of 3H-DHA in rat preputial gland homogenate (TLC/scintillation counting); assay type: biochemical; details: rat preputial gland homogenate, 1,2-³H-DHA with 100 nmoles DHA, 37°C; range of four separate incubations
Experimental: To assess the androgen inhibiting activity of pregnenolone, rat preputial gland was employed to investigate the in vitro androgenic action of DHA. […] A pair of the glands are situated in the prepuce of the rate of either sex weighing between 125-200 mg in an average 200 g rat, being slightly larger in the male animal. The animals employed were female Sprague-Dawley rats, 10-12 weeks old and weighing 225-300 g.
The experimental format, stated broadly, was to excise preputial glands from rats and prepare a homogenate therefrom. A predetermined amount of homogenate (the sample) was then spiked with radiolabeled (with ³H) DHA, in the presence or absence of pregnenolone, and the sample was incubated. […] The metabolites were quantitated by removal from the thin layer plate and counting in a scintillation counter. By determining the extent of metabolite formation, the extent of inhibition of 3βHSD could be correspondingly determined. […]
Experiments were initially conducted to ensure that DHA and its metabolites could be separated chromatographically. […] The position of the steroid can be readily traced with this method. […] Elution and quantitative evaluation of steroids can be effected after removal of the iodine. […] For quantitation the plates were then scraped in 1 cm sections for radioassay of ³H in a Packard Tri- Carb liquid scintillation counter. […]

[7] = 1% pregnenolone in isopropanol containing 1% glycerol, face, twice daily, twelve weeks, 15 patients

SMILES: C[C@]12CC[C@H](O)CC1=CC[C@@H]1[C@@H]2CC[C@]2(C)C(=O)CC[C@@H]12 [DHA, dehydroepiandrosterone]
- stimulation of flank organ growth [1]: stimulation of both flank organs

SMILES: C[C@]12CCC(=O)C[C@@H]1CC[C@@H]1[C@@H]2CC[C@]2(C)[C@@H](O)CC[C@@H]12 [DHT, dihydrotestosterone]
- flank organ sebaceous gland growth and pigmentation [2]: unilateral stimulation of sebaceous gland growth and pigmentation

SMILES: C[C@]12CCC(=O)C=C1CC[C@@H]1[C@@H]2CC[C@]2(C)C(=O)CC[C@@H]12 [androstenedione, Δ⁴-androstenedione]
- flank organ sebaceous gland growth and pigmentation [2]: unilateral stimulation of sebaceous gland growth and pigmentation

SMILES: C[C@]12CC[C@@H](O)C[C@@H]1CC[C@@H]1[C@@H]2CC[C@]2(C)C(=O)CC[C@@H]12 [androsterone]
- flank organ sebaceous gland growth and pigmentation [2]: did not cause flank organ growth or increased pigmentation

SMILES: C[C@]12CC[C@H](O)C[C@@H]1CC[C@@H]1[C@@H]2CC[C@]2(C)C(=O)CC[C@@H]12 [epiandrosterone]
- flank organ sebaceous gland growth and pigmentation [2]: did not cause flank organ growth or increased pigmentation

SMILES: C[C@]12CCC(=O)C=C1CC[C@@H]1[C@@H]2CC[C@@]2(C)[C@H]1CC[C@]2(C)O [methyltestosterone]
- flank organ sebaceous gland growth and pigmentation [2]: unilateral stimulation of sebaceous gland growth and pigmentation

SMILES: CC(=O)[C@H]1CC[C@H]2[C@@H]3CC=C4C[C@@H](O)CC[C@]4(C)[C@H]3CC[C@]12C [pregnenolone, Δ⁵-pregnene-3β-o1-20-one]
- solubility in vehicles with a high content of alcohols ([3]; isopropanol or mixtures of alcohols with longer (C₄-C₁₀) alkane or alkene chains): soluble
- solubility in water ([3]; water): insoluble
- formation of testosterone, DHT and androstanediol in flank organs, control versus treated [4]: Control hamsters, not treated with inhibitor, show greater formation
- patients noted definite improvement, with reduction in the size and number of lesions [5, 7]: 33%
- patients noted no change in lesions or oiliness [5, 7]: 26%
- patients noted reduction of oiliness [5, 7]: 13%
- patients noted slight reduction of the number of lesions and a reduction in the oiliness of the skin [5, 7]: 26%
- patients showed marked reductions in skin oiliness and in pore size ([5]; 1% pregnenolone in isopropanol containing 1% glycerol, twelve weeks, 15 patients): two
- patients' comparison with other medications used previously ([5]; claim of patients who had used other medications previously): more effective and more acceptable
- irritation or discomfort caused by the topical application ([5]; human, in vivo): no complaint
- inhibition of the 3βHSD for DHA (Δ⁴-3-keto product formed, relative to absence of the inhibitor) [6]: 91-92%

SMILES: CC(=O)[C@H]1CC[C@H]2[C@@H]3CCC4=CC(=O)CC[C@]4(C)[C@H]3CC[C@]12C [progesterone]
- flank organ sebaceous gland growth and pigmentation [2]: did not cause flank organ growth or increased pigmentation

SMILES: C[C@]12CC[C@H]3[C@@H](CCC4=CC(=O)CC[C@@]43C)[C@@H]1CC[C@@H]2O [testosterone]
- flank organ sebaceous gland growth and pigmentation [2]: unilateral stimulation of sebaceous gland growth and pigmentation
